# Experimental data as given in PMC6934184, “Selective DNA-PKcs inhibition extends the therapeutic index of localized radiotherapy and chemotherapy” (The Journal of Clinical Investigation, 2019).
# Target: T1, CSK (Homo sapiens, UniProt P41240)
# T1 construct: purchased Thermo Fisher Scientific (Life Technologies) SelectScreen
# Test: SelectScreen Z'LYTE
# Type: biochemical
# How it was run: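 Percent values come from Thermo SelectScreen profiling of NU5455, combining activity and binding assays. CSF1R was run in Z'LYTE format at Km app ATP, and CAMK1 in Adapta format with ATP listed at 10.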
# T1 sequence (P41240 whole entry): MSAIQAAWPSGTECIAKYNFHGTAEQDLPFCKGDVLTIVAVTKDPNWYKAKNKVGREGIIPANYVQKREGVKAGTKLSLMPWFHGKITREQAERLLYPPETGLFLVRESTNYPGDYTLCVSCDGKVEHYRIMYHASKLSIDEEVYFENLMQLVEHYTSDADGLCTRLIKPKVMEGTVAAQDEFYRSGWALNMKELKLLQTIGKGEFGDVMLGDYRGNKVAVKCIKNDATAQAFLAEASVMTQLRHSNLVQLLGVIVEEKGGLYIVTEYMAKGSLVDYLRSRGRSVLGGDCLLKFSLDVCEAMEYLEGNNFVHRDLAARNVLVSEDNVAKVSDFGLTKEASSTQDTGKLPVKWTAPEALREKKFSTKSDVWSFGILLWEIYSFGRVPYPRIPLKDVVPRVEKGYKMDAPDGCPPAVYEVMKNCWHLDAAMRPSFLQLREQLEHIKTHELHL
structure (smiles),measurement,value
CN(C(=O)CN1CCOCC1)c1ccc2sc3c(-c4cccc5c(=O)cc(N6CC7CCC(C6)O7)oc45)cccc3c2c1 [NU5455],inhibition at 1 µM,7.6%
